Earlier results on 3 molecules are cited in patent KR20140119363A, “보리코나졸이 함유된 안정화된 조성물” (에스케이케미칼주식회사, priority 2013, dated 2014).

For data set [1] the following is noted: degradation product triazole acetophenone formed.
For data set [2], the system named is deep-seated mycosis [심재성 진균증].
For data set [3] the following is noted: in vivo.

Molecules are shown by their SMILES.

As for `C[C@@H](c1ncncc1F)[C@](O)(Cn1cncn1)c1ccc(F)cc1F` [보리코나졸], the “stability to moisture and heat” value in data set [1] is recorded as “수분 및 열에 불안정”. Take `CCC(C)n1ncn(-c2ccc(N3CCN(c4ccc(OCC5COC(Cn6cncn6)(c6ccc(Cl)cc6Cl)O5)cc4)CC3)cc2)c1=O` (stereo not shown) [이트라코나졸]: in data set [2] (in vivo), the treatment success rate entry is reported as “그다지 높지 않은”. On to `C[C@@H]1[C@H](O)[C@@H](C)/C=C/C=C/C=C/C=C/C=C/C=C/C=C/[C@H](O[C@@H]2O[C@H](C)[C@@H](O)[C@H](N)[C@@H]2O)C[C@@H]2O[C@](O)(C[C@@H](O)C[C@@H](O)[C@H](O)CC[C@@H](O)C[C@@H](O)CC(=O)O[C@H]1C)C[C@H](O)[C@H]2C(=O)O` [암포테리신 B], for which the response rate in data set [2] (overall average) is given as about 34%. The nephrotoxicity result in data set [3] is listed as “심각한 문제”.
